IC50 data for 26 molecules are collected here from patent US9796706B2, “Inhibitors of Jun N-terminal kinase” (IMAGO PHARMACEUTICALS, INC., priority 2009, dated 2017).

Holding throughout (type): biochemical
Common to all, as to details: procedures of Example 14 (TR-FRET)

For one experiment, the target named is JNK3 (Homo sapiens (Human), UniProt P53779). The experiment can be described thus: JNK3 TR-FRET kinase assay (Example 14). How it is done: (§1) 14.3. Active JNK 1, 2 and 3 TR-FRET Assay
(§2) (1) Assay buffer #1 with 0.0025% Tween and 1 mM DTT was prepared using JNK buffer stock solution.
(§3) (2) Assay buffer #2 with 0.025% BSA was prepared using the assay buffer #1.
(§4) (3) Test compound solution preparation: 5× compound solution was prepared using assay buffer #1 with 5% DMSO. The compound solution (10 μl/well) was added to a 384-well plate (Corning, Cat No. 3654).
(§5) (4) aJNK1, 2 or 3 preparation: aJNK stock (100 μg/ml) at −80° C. was thawed on ice and an aJNK (1.6 ng/ml) solution was prepared using assay buffer #2. The aJNK solution (20 μl/well) was added to the plate and the plate was shaken. The enzyme was incubated with the compound at RT for 10 min. (5) ATP/substrate solution preparation: ATP and substrate stocks were thawed on ice. 2.5×ATP/substrate (e.g., 25 μM or 2.5 mM ATP/50 nM EPIW-1) was prepared using assay buffer #1. The ATP/substrate (20 μl/well) was added to the plate and the plate was shaken. The plate was incubated at RT for 15 min. Note: In an exemplary assay, the final ATP concentration was about 1 mM. (6) EDTA preparation: 30 mM EDTA was prepared using 0.5M EDTA stock and assay buffer #1. The EDTA (10 μl/well) was added to the plate to quench the enzyme reaction and the plate was shaken well. (7) Detection reagent preparation: Eu-63 and SA-XL stocks were thawed on ice. 4× Eu-63/SA-XL (2 nM Eu-63/9.4 nM SA-XL) was prepared using JNK detection buffer. The Eu-63/SA-XL solution (20 μl/well) was added to the plate and the plate was shaken. The plate was incubated at RT for 1 hr before reading the plate on LJL using ratiometric method named HTRF.
(§6) 14.4. Coupled JNK 1, 2 and 3 TR-FRET Assay
(§7) (1) Assay buffer with 0.0025% Tween, 0.01% BSA, and 1 mM DTT was prepared using JNK buffer stock solution.
(§8) (2) Test compound solution preparation: 5× compound solution, including EDTA background, was prepared using assay buffer with 5% DMSO. The compound solution (10 μl/well) was added to a 384-well plate (Corning, Cat No. 3654).
(§9) (3) uJNK1,2, or 3 activation reaction preparation: uJNK activation solution was prepared using assay buffer (1.6 ng/ml MKK4, 1.6 ng/ml MKK7, 16 ng/ml uJNK, and 20 uM ATP final). The uJNK activation solution (35 μl/well) was added to the plate, the plate was shaken, and the reaction mixture was incubated with compound at 30° C. for 60 min. (4) c-Jun substrate solution preparation: 50 nM EPIW-1, c-Jun peptide, was prepared using assay buffer (15 nM final). The EPIW-1 solution (15 μl/well) was added to the plate, the plate was shaken and incubated at 30° C. for 60 min. (5) EDTA preparation: 30 mM EDTA was prepared using 0.5M EDTA stock and assay buffer. The EDTA (10 μl/well) was added to the plate to quench the enzyme reaction and the plate was shaken well. (6) Detection reagent preparation: Eu-73 and SA-XL stocks were thawed on ice. 4× Eu-73/SA-XL (2 nM Eu-73/9.4 nM SA-XL) were prepared using JNK detection buffer. The Eu-73/SA-XL solution (20 μl/well) was added to the plate. The plate was shaken and incubated at RT for 1 hr before reading the plate on LJL using ratiometric method named HTRF.

For a further experiment, the target named is JNK1 (Homo sapiens (Human), UniProt P45983). Briefly: JNK1 TR-FRET kinase assay (Example 14). The protocol: as §1, §2, §3, §4, §5, §6, §7, §8, §9
Sequence of JNK1 (P45983 other isoform, or with tags, fused parts or gaps isoform P45983-2, species assumed): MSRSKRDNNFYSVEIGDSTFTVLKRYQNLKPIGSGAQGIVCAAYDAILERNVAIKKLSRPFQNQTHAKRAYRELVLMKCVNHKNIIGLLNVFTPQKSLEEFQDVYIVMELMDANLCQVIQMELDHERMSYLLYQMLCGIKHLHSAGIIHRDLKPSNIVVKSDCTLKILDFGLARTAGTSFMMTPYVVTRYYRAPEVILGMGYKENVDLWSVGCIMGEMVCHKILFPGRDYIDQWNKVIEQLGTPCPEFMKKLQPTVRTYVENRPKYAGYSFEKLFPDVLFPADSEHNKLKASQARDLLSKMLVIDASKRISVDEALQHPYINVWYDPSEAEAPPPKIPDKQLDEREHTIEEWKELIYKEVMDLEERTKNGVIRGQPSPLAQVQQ
For a further experiment, the target named is JNK2 (Homo sapiens (Human), UniProt P45984). The experiment can be described thus: JNK2 TR-FRET kinase assay (Example 14). How it is done: as §1, §2, §3, §4, §5, §6, §7, §8, §9
Sequence of JNK2 (P45984 whole entry, species assumed): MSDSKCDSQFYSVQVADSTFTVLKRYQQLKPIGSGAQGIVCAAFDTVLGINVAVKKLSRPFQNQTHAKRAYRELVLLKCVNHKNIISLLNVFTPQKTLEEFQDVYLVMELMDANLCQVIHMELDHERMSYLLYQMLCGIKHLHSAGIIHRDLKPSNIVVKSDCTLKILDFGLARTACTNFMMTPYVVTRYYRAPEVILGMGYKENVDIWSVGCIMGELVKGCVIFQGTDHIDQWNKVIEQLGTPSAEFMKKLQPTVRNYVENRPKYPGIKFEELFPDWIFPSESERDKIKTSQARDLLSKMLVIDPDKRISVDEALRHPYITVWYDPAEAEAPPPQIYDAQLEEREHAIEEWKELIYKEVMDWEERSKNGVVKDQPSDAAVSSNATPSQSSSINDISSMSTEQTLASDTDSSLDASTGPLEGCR

Sequence of JNK3 (P53779 whole entry, species assumed): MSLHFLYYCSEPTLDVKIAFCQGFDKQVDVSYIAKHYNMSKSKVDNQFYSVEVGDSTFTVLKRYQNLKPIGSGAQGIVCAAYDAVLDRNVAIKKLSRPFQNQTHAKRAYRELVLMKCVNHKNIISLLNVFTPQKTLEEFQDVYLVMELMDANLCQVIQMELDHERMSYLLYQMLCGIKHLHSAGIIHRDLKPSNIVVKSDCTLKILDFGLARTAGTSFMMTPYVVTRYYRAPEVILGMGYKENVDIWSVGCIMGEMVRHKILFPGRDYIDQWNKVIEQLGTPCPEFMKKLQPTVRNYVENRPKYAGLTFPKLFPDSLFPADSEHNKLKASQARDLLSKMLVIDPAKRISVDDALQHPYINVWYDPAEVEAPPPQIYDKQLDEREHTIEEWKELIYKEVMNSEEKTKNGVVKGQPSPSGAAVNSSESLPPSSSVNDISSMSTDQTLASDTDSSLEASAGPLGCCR

For the molecule `COc1ccc(CC(=O)Nc2ccsc2-c2nc(C(F)(F)F)n[nH]2)cc1` [2-(4-methoxyphenyl)-N-(2-(3-(trifluoromethyl)-1H-1,2,4-triazol-5-yl)thiophen-3-yl)acetamide], the IC50 on JNK3 is 0.1 to 10 µM; against JNK1, 0.1 to 10 µM; at JNK2, greater than 10 µM.

`COc1ccc(CC(=O)Nc2ccsc2-n2cnc(C)c2)cc1` [2-(4-methoxyphenyl)-N-(2-(4-methyl-1H-imidazol-1-yl)thiophen-3-yl)acetamide]: the IC50 against JNK3, on JNK1 and at JNK2 was greater than 50 µM in each case.

Regarding `COc1ccc(CC(=O)Nc2ccsc2-n2cc(C)cn2)cc1` [2-(4-methoxyphenyl)-N-(2-(4-methyl-1H-pyrazol-1-yl)thiophen-3-yl)acetamide], the IC50 at JNK3, at JNK1 and at JNK2 was greater than 10 µM throughout.

As to `COc1ccc(CC(=O)Nc2ccsc2-c2nnc(C)o2)cc1` [2-(4-methoxyphenyl)-N-(2-(5-methyl-1,3,4-oxadiazol-2-yl)thiophen-3-yl)acetamide], the IC50 against JNK3 is 0.1 to 10 µM; against JNK1, 0.1 to 10 µM; on JNK2, greater than 50 µM.

In the case of `COc1ccc(CC(=O)Nc2ccsc2-c2cnccn2)cc1` [2-(4-methoxyphenyl)-N-(2-(pyrazin-2-yl)thiophen-3-yl)acetamide], the IC50 at JNK3, against JNK1 and at JNK2 was 0.1 to 10 µM in each case.

Turning to `COc1ccc(CC(=O)Nc2sccc2-c2nnn(C)n2)cc1` [2-(4-methoxyphenyl)-N-(3-(2-methyl-2H-tetrazol-5-yl)thiophen-2-yl)acetamide], the figures for the IC50 at JNK3, against JNK1 and at JNK2 were 0.1 to 10 µM, 0.1 to 10 µM and greater than 10 µM, respectively.

Turning to `COc1ccc(CC(=O)Nc2sccc2-c2noc(C)n2)cc1` [2-(4-methoxyphenyl)-N-(3-(5-methyl-1,2,4-oxadiazol-3-yl)thiophen-2-yl)acetamide], the IC50 at JNK3, against JNK1 and against JNK2 was 0.1 to 10 µM in each case.

On to `COc1ccc(CC(=O)Nc2scc(C)c2-c2nc(C)n[nH]2)cc1` [2-(4-methoxyphenyl)-N-(4-methyl-3-(3-methyl-1H-1,2,4-triazol-5-yl)thiophen-2-yl)acetamide], for which the IC50 at JNK3, on JNK1 and against JNK2 was 0.1 to 10 µM each time.

Consider `O=C(Cn1c(=O)ccc2cc(Br)ccc21)Nc1scc(Br)c1-c1nc[nH]n1` [2-(6-bromo-2-oxoquinolin-1(2H)-yl)-N-(4-bromo-3-(1H-1,2,4-triazol-3-yl)thiophen-2-yl)acetamide], for which the half-maximal inhibitory concentration (IC50) against JNK3, against JNK1 and against JNK2 was less than 0.1 µM throughout.

For the molecule `O=C(Cn1c(=O)ccc2cc(Br)ccc21)Nc1scc(Cl)c1-c1nc[nH]n1` [2-(6-bromo-2-oxoquinolin-1(2H)-yl)-N-(4-chloro-3-(1H-1,2,4-triazol-3-yl)thiophen-2-yl)acetamide], the IC50 against JNK3, against JNK1 and against JNK2 was less than 0.1 µM each time.

With `O=C(CN1C(=O)CCc2ccc(Br)cc21)Nc1scc(Br)c1-c1ncn[nH]1` [2-(7-bromo-2-oxo-3,4-dihydroquinolin-1(2H)-yl)-N-(4-bromo-3-(1H-1,2,4-triazol-5-yl)thiophen-2-yl)acetamide], the IC50 at JNK3, against JNK1 and on JNK2 was 0.1 to 10 µM throughout.

Regarding `O=C(Cc1cccc2ncsc12)Nc1scc(Br)c1-c1ncn[nH]1` [2-(benzo[d]thiazol-7-yl)-N-(4-bromo-3-(1H-1,2,4-triazol-5-yl)thiophen-2-yl)acetamide], the IC50 was less than 0.1 µM at JNK3, less than 0.1 µM against JNK1 and 0.1 to 10 µM at JNK2.

Consider `COc1nc(-c2sccc2NC(=O)Cc2cccc3cnccc23)cs1` [2-(isoquinolin-5-yl)-N-(2-(2-methoxythiazol-4-yl)thiophen-3-yl)acetamide], for which the IC50 at JNK3 is 0.1 to 10 µM; against JNK1, 0.1 to 10 µM; at JNK2, greater than 10 µM.

Consider `Cc1csc(-c2sccc2NC(=O)Cc2cccc3cnccc23)n1` [2-(isoquinolin-5-yl)-N-(2-(4-methylthiazol-2-yl)thiophen-3-yl)acetamide], for which the IC50 against JNK3, against JNK1 and against JNK2 was 0.1 to 10 µM throughout.

Take `Cc1cnc(-c2sccc2NC(=O)Cc2cccc3cnccc23)s1` [2-(isoquinolin-5-yl)-N-(2-(5-methylthiazol-2-yl)thiophen-3-yl)acetamide]: the IC50 at JNK3, against JNK1 and at JNK2 was 0.1 to 10 µM throughout.

As to `O=C(Cc1cccc2cnccc12)Nc1ccsc1-c1ncco1` [2-(isoquinolin-5-yl)-N-(2-(oxazol-2-yl)thiophen-3-yl)acetamide], the IC50 against JNK3, against JNK1 and against JNK2 was 0.1 to 10 µM each time.

`O=C(Cc1cccc2cnccc12)Nc1ccsc1-c1nccs1` [2-(isoquinolin-5-yl)-N-(2-(thiazol-2-yl)thiophen-3-yl)acetamide]: the IC50 on JNK3, against JNK1 and against JNK2 was 0.1 to 10 µM throughout.

Take `O=C(Cc1cccc2cnccc12)Nc1ccsc1-c1cscn1` [2-(isoquinolin-5-yl)-N-(2-(thiazol-4-yl)thiophen-3-yl)acetamide]: the IC50 on JNK3, on JNK1 and against JNK2 was 0.1 to 10 µM each time.

As to `O=C(Cc1cccc2cnccc12)Nc1scnc1-c1cnccn1` [2-(isoquinolin-5-yl)-N-(4-(pyrazin-2-yl)thiazol-5-yl)acetamide], the IC50 against JNK3, against JNK1 and on JNK2 was 0.1 to 10 µM throughout.

Consider `O=C(Cc1cccc2ccccc12)Nc1ccsc1-c1nnco1` [N-(2-(1,3,4-oxadiazol-2-yl)thiophen-3-yl)-2-(naphthalen-1-yl)acetamide], for which the figures for the IC50 at JNK3, against JNK1 and at JNK2 were 0.1 to 10 µM, 0.1 to 10 µM and greater than 10 µM, respectively.

For `Cc1nc(-c2sccc2NC(=O)Cc2cccc3ccccc23)n(C)n1` [N-(2-(1,3-dimethyl-1H-1,2,4-triazol-5-yl)thiophen-3-yl)-2-(naphthalen-1-yl)acetamide], the IC50 is greater than 10 µM on JNK3, greater than 10 µM at JNK1 and greater than 50 µM at JNK2.

As to `Cn1ncnc1-c1sccc1NC(=O)Cc1cccc2ccccc12` [N-(2-(1-methyl-1H-1,2,4-triazol-5-yl)thiophen-3-yl)-2-(naphthalen-1-yl)acetamide], the IC50 on JNK3, at JNK1 and on JNK2 was greater than 50 µM each time.

Take `Cn1ccnc1-c1sccc1NC(=O)Cc1cccc2ccccc12` [N-(2-(1-methyl-1H-imidazol-2-yl)thiophen-3-yl)-2-(naphthalen-1-yl)acetamide]: the IC50 was greater than 10 µM on JNK3, greater than 10 µM against JNK1 and greater than 50 µM on JNK2.

Regarding `Cn1ccc(-c2sccc2NC(=O)Cc2cccc3ccccc23)n1` [N-(2-(1-methyl-1H-pyrazol-3-yl)thiophen-3-yl)-2-(naphthalen-1-yl)acetamide], the IC50 on JNK3 is greater than 10 µM; on JNK1, greater than 10 µM; against JNK2, greater than 50 µM.

For `COc1ccc(CC(=O)Nc2ccsc2-n2cncn2)cc1` [N-(2-(1H-1,2,4-triazol-1-yl)thiophen-3-yl)-2-(4-methoxyphenyl)acetamide], the figures for the IC50 against JNK3, at JNK1 and against JNK2 were greater than 10 µM, greater than 10 µM and greater than 50 µM, respectively.

In the case of `COc1ccc(CC(=O)Nc2ccsc2-c2ncn[nH]2)cc1` [N-(2-(1H-1,2,4-triazol-5-yl)thiophen-3-yl)-2-(4-methoxyphenyl)acetamide], the IC50 against JNK3, at JNK1 and against JNK2 was 0.1 to 10 µM in each case.
